Source: patent publication US10959968B2, “Methods for treating c-Met-dependent cancers” (Board of Supervisors of Louisiana State University and …, priority 2016, dated 2021)

Key:
[1] = test system: T-47D breast cancer cells; test: HGF-stimulated growth of Met-independent cells, MTT assay; format: cell-based, human; settings: similar treatment doses; 72 h
Method: FIG. 3. (A) Effect of HVS treatment on HGF-stimulated growth of Met-dependent MDA-MB-231, MDA-MB-468, MCF-7. and BT-474 breast cancer cells after 72 h treatment period, compared to DMSO as vehicle control. Viable cell count was determined using MTT assay. Vertical bars indicate the mean cell count±SEM of N=3 in each treatment group; (−)-oleocanthal was used as a positive control at 20 μM. (B) Effect of HVS treatment on HGF-stimulated growth of Met-independent T-47D breast cancer cells after 72 h treatment period. Viable cell count was determined using MTT assay. Vertical bars indicate the mean cell count±SEM of N=3 in each treatment group. (C) Cytotoxic effects of HVS on the highly metastatic MDA-MB-231 breast cancer cells at two different concentrations (30 and 60 μM) using LDH cytotoxicity assay. Triton X-100 was used as a positive control to cause the breakdown of all the cells and induce the total possible LDH release. (D) Effects of HVS treatment on the viability of non-tumorigenic human MCF10A mammary epithelial cells after a 24 h treatment period, compared to DMSO as vehicle control. (E) As in panel (A) but without HGF. […] Viable cell count was determined using MTT assay. Vertical bars indicate the mean cell count±SEM of N=3 in each treatment group; doxorubicin was used as a positive control at 10 μM dose. *P<0.05 as compared with vehicle treated control.
[…]. […]

[2] = test system: DU145 spheroids; test: 3D spheroid growth, IncuCyte; format: cell-based, human; settings: 72 hours
Method: FIG. 9B: DU145 cells were grown in 10% FBS DMEM. Cells were collected after trypsinization and resuspended in phenol-red free DMEM with 10% FBS. Cells were labeled with Cell-Tracker Red (Life Technologies) for 5 minutes. After labeling cells were washed with PBS and transfer into 96-well Corning 7007 ULA round bottom plates at 1,000 cells/well in 100 μl phenol-red free media with 10% FBS and 5% Matrigel. […] Spheroids were grown at 37° C. and 5% CO2 in IncuCyte ZOOM (Essen Bioscience). Images were acquired every 4 h for a period of 72 h post-treatment and software analysis was design to identify the red object in the well. The data were expressed as fold increase in spheroids size at the end of the treatment using the “average red object area in the well” as determined by the IncuCyte software analysis. FIG. 9C: Visually representative spheroids that are quantitated in FIG. 9B.
To determine the effectiveness of these compounds under 3D growth conditions which more accurately predict effectiveness of new drugs in humans, DU145 spheroids were formed and allowed to grow for 72 hours. Images were recorded every 4 hours using the Incucyte platform. […] Compounds 9 and 10, at 10 micromolar reduced spheroid growth by about 50 percent (not shown).

[3] = molecular target: ABL1 (Homo sapiens, UniProt P00519); test: SelectScreen Kinase Profiling; format: biochemical; settings: read-out: Mean inhibition at 10 μM of HVS (%)
[4] = molecular target: ALK (Homo sapiens, UniProt Q9UM73); test: SelectScreen Kinase Profiling; format: biochemical; settings: read-out: Mean inhibition at 10 μM of HVS (%)
Method: (§1) HVS was evaluated against a cross-section of tyrosine kinases (TKs), which are known to be structurally related and oncogenically relevant to c-Met, in order to understand its selectivity profile. A panel of 15 TKs was selected for biochemical analysis through the SelectScreen Kinase Profiling Service (Invitrogen, CA). In this assay, the results are expressed as % inhibition at a 10 μM dose (see Table I below).
as §1, with “Table I (Above) HVS” for “HVS”, “profile (Table 1).” for “profile.”, “(Table 1).” for “(see Table I below).”

[5] = molecular target: EGFR (ERbB1) (Homo sapiens, UniProt P00533); test: SelectScreen Kinase Profiling; format: biochemical; settings: read-out: Mean inhibition at 10 μM of HVS (%)
Method: as §1
as §1, with “Table I (Above) HVS” for “HVS”, “profile (Table 1).” for “profile.”, “(Table 1).” for “(see Table I below).”

[6] = molecular target: FGFR1 (Homo sapiens, UniProt P11362); test: SelectScreen Kinase Profiling; format: biochemical; settings: read-out: Mean inhibition at 10 μM of HVS (%)
Method: as §1
as §1, with “Table I (Above) HVS” for “HVS”, “profile (Table 1).” for “profile.”, “(Table 1).” for “(see Table I below).”

[7] = molecular target: FLT1 (VEGFR1) (Homo sapiens, UniProt P17948); test: SelectScreen Kinase Profiling; format: biochemical; settings: read-out: Mean inhibition at 10 μM of HVS (%)
Method: as §1
as §1, with “Table I (Above) HVS” for “HVS”, “profile (Table 1).” for “profile.”, “(Table 1).” for “(see Table I below).”

[8] = molecular target: HER2 (ERbB2) (Homo sapiens, UniProt P04626); test: SelectScreen Kinase Profiling; format: biochemical; settings: read-out: Mean inhibition at 10 μM of HVS (%)
Method: as §1
as §1, with “Table I (Above) HVS” for “HVS”, “profile (Table 1).” for “profile.”, “(Table 1).” for “(see Table I below).”

[9] = molecular target: HER4 (ERbB4) (Homo sapiens, UniProt Q15303); test: SelectScreen Kinase Profiling; format: biochemical; settings: read-out: Mean inhibition at 10 μM of HVS (%)
Method: as §1
as §1, with “Table I (Above) HVS” for “HVS”, “profile (Table 1).” for “profile.”, “(Table 1).” for “(see Table I below).”

[10] = molecular target: IGF1R (Homo sapiens, UniProt P08069); test: SelectScreen Kinase Profiling; format: biochemical
Method: as §1
as §1, with “Table I (Above) HVS” for “HVS”, “profile (Table 1).” for “profile.”, “(Table 1).” for “(see Table I below).”

[11] = molecular target: KDR (VEGFR2) (Homo sapiens, UniProt P35968); test: SelectScreen Kinase Profiling; format: biochemical; settings: read-out: Mean inhibition at 10 μM of HVS (%)
Method: as §1
as §1, with “Table I (Above) HVS” for “HVS”, “profile (Table 1).” for “profile.”, “(Table 1).” for “(see Table I below).”

[12] = molecular target: KIT (Homo sapiens, UniProt P10721); test: SelectScreen Kinase Profiling; format: biochemical; settings: read-out: Mean inhibition at 10 μM of HVS (%)
Method: as §1
as §1, with “Table I (Above) HVS” for “HVS”, “profile (Table 1).” for “profile.”, “(Table 1).” for “(see Table I below).”

[13] = molecular target: PDGFRβ (Homo sapiens, UniProt P09619); test: SelectScreen Kinase Profiling; format: biochemical; settings: read-out: Mean inhibition at 10 μM of HVS (%)
Method: as §1
as §1, with “Table I (Above) HVS” for “HVS”, “profile (Table 1).” for “profile.”, “(Table 1).” for “(see Table I below).”

[14] = molecular target: ROS1 (Homo sapiens, UniProt P08922); test: SelectScreen Kinase Profiling; format: biochemical; settings: read-out: Mean inhibition at 10 μM of HVS (%)
Method: as §1
as §1, with “Table I (Above) HVS” for “HVS”, “profile (Table 1).” for “profile.”, “(Table 1).” for “(see Table I below).”

[15] = molecular target: TYRO3 (RSE) (Homo sapiens, UniProt Q06418); test: SelectScreen Kinase Profiling; format: biochemical; settings: read-out: Mean inhibition at 10 μM of HVS (%)

IGF1R, sequence (P08069 31-1367): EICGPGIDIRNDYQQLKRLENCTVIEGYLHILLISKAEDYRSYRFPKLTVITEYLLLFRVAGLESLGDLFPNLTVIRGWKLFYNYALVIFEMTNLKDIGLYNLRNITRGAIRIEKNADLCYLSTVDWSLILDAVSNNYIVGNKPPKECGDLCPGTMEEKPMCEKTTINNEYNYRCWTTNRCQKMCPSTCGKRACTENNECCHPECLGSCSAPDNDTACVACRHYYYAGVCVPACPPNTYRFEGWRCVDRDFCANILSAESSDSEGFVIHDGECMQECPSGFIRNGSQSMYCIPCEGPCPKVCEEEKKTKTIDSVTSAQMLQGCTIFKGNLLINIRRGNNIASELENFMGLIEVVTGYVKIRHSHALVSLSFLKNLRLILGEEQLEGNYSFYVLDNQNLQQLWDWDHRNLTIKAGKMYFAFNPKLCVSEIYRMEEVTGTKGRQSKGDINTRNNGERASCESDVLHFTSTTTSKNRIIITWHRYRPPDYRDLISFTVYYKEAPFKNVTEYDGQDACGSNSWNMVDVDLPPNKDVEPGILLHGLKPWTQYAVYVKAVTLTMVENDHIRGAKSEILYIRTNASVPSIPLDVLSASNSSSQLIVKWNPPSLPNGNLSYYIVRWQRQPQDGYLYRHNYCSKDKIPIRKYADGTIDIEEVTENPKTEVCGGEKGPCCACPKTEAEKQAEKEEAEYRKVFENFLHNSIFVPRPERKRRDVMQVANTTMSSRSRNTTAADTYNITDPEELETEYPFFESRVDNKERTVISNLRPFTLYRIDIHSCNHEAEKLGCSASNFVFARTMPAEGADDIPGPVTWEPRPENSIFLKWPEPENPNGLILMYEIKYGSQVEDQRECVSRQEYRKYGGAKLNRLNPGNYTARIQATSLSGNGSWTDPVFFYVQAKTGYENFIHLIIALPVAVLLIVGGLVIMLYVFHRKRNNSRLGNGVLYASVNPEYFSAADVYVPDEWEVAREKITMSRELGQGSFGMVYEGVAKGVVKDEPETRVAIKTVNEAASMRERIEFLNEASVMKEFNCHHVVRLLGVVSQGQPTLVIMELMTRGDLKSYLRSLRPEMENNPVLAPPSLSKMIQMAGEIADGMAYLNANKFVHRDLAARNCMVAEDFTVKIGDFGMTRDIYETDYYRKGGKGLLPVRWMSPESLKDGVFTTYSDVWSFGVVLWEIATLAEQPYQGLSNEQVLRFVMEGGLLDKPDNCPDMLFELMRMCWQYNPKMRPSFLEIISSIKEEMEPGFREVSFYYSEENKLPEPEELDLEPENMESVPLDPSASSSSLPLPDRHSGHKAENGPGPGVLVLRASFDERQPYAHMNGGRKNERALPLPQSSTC
HER4 (ERbB4), sequence (Q15303 26-1308): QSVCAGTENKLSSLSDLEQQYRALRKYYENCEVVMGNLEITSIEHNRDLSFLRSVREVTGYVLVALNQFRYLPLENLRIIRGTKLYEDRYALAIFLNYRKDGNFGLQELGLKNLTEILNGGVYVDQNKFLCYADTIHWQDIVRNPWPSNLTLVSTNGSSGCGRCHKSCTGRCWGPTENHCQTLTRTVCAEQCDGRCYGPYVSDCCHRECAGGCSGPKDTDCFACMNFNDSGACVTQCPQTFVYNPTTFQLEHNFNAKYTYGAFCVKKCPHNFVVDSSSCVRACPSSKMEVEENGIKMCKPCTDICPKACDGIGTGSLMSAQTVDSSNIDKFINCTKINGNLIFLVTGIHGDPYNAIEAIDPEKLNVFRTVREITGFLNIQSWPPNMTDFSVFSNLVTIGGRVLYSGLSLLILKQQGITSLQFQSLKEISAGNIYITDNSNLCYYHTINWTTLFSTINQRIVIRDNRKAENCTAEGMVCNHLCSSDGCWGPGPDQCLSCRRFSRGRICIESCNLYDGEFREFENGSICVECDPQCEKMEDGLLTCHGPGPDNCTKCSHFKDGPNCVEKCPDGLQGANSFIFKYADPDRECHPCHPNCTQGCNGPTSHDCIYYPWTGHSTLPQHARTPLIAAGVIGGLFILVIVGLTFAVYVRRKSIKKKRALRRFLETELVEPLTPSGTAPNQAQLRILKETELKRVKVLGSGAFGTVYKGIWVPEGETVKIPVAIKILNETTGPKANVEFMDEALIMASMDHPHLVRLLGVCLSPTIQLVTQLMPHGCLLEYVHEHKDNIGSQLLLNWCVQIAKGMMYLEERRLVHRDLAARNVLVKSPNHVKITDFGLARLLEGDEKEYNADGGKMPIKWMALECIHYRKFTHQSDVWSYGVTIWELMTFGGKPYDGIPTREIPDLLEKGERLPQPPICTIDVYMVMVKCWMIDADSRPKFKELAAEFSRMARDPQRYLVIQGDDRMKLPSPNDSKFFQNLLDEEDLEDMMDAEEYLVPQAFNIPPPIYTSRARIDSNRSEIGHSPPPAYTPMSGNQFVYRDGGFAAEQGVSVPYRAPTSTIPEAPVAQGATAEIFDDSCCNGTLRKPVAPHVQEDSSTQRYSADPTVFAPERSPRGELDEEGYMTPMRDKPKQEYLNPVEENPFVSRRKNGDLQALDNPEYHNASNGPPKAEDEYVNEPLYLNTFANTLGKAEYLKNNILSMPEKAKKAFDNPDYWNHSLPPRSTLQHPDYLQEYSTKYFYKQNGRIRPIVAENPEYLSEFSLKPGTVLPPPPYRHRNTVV
ROS1, sequence (P08922 28-2347): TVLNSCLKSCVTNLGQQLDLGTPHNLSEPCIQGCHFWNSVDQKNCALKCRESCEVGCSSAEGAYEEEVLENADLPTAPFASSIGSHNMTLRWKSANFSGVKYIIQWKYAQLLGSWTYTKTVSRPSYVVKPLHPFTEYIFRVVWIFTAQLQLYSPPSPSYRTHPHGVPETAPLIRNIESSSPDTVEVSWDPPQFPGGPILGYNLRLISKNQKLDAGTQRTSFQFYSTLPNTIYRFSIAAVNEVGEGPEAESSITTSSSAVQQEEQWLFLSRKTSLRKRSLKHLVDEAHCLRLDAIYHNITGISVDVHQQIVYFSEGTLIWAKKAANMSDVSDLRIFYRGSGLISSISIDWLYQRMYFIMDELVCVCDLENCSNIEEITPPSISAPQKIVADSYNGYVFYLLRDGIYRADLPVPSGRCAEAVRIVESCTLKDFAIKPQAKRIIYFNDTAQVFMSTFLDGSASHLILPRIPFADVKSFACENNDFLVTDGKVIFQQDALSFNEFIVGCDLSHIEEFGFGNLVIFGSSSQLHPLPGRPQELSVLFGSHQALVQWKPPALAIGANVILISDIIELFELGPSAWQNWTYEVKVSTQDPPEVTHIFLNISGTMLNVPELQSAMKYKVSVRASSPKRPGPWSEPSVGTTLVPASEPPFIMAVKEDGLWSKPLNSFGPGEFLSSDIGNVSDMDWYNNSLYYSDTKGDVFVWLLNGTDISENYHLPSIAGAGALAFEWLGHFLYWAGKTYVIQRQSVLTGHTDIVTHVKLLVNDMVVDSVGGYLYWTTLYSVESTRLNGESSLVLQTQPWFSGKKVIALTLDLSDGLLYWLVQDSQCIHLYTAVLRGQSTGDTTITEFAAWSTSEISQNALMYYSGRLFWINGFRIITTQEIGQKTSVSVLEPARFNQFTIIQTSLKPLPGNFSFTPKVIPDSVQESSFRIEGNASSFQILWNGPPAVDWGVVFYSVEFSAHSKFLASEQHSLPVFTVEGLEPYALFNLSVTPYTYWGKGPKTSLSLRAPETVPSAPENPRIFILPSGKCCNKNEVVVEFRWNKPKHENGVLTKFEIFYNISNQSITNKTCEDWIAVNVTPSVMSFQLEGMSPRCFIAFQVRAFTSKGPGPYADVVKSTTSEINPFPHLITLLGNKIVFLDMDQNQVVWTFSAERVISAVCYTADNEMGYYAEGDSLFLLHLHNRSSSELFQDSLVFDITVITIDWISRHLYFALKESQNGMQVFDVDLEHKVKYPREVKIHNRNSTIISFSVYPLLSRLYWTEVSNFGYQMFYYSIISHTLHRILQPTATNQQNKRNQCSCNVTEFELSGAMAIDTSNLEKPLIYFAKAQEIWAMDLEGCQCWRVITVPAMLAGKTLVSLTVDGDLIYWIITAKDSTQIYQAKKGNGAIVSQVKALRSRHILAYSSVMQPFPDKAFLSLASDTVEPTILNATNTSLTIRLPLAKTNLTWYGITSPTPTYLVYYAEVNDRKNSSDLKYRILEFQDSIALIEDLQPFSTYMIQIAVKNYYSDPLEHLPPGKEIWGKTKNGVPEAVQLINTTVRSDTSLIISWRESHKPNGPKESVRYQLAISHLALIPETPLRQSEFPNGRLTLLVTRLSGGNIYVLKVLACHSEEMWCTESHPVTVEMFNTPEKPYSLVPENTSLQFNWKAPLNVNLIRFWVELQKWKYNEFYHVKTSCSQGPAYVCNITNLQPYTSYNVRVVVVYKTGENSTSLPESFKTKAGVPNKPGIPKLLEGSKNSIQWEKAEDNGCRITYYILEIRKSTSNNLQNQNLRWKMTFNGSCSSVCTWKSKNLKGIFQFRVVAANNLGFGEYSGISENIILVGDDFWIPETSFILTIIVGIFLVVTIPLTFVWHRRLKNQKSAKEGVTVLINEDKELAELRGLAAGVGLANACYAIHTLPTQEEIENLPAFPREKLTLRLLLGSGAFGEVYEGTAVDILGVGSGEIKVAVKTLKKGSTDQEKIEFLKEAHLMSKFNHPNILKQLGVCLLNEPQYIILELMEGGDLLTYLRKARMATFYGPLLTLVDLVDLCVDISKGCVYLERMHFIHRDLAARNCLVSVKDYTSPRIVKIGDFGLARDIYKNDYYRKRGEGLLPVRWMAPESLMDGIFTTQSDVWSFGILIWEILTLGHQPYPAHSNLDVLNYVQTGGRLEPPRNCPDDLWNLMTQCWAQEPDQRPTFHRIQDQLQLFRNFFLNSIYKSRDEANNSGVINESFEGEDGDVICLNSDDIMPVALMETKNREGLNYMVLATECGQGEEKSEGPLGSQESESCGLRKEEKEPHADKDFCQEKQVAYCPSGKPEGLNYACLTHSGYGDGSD

SMILES: COc1cc(CCOC(=O)/C=C/c2cc(OC)c(O)c(OC)c2)ccc1O [Compound 8, (E)-4-hydroxy-3-methoxyph-ethyl 3-(4-hydroxy-3,5-dimethoxyphenyl) acrylate]
- effect on T47-D cells which lack c-Met [1]: no discernable effects
- reduction of spheroid growth ([2]; 10 micromolar): over 80%
- lowest concentration blocking spheroid growth [2]: ≤ 1 µM
- inhibition at 10 µM [3]: 79%
- inhibition at 10 µM [4]: 21%
- inhibition at 10 µM [5]: 7%
- inhibition at 10 µM [6]: 50%
- inhibition at 10 µM [7]: 9%
- inhibition at 10 µM [8]: 4%
- inhibition at 10 µM [9]: 7%
- Mean inhibition at 10 μM of HVS (%) [10]: no observed inhibition
- inhibition at 10 µM ([10]; read-out: Mean inhibition at 10 μM of HVS (%)): -5%
- inhibition at 10 µM [11]: 20%
- inhibition at 10 µM [12]: -3%
- inhibition at 10 µM [13]: 14%
- inhibition at 10 µM [14]: 24%
- inhibition at 10 µM [15]: 21%
